Experimental data taken from PMC10993450, “New benzimidazole derivative compounds with in vitro fasciolicidal properties” (Parasites & Vectors, 2024).
Values joined by “and” are separate entries in the source; they are usually repeats but may differ in a detail not shown here. Identical values can stand only once. Like-named read-outs stand apart in the source and are kept apart here.

Key:
[1] = test system: Fasciola hepatica eggs (ABZ-susceptible isolate); assay: Egg hatch test (EHT), ABZ-susceptible isolates; type: cell-based; settings: for % Ovicidal activity: ABZ-susceptible isolate
Description: Eggs were recovered from gallbladders of cattle naturally infected with F. hepatica at the municipal slaughterhouse of León (Spain). For this, the bile of the gallbladders was filtered through sieves of different diameter size pores (500, 150, and 20 µm) using pressurized tap water. Eggs retained on the 20 µm pore size sieve were collected and stored at 4 °C in darkness until required within a maximum period of 2 months.
The susceptibility of the isolates to ABZ was confirmed by the egg hatch test (EHT) using an ABZ discriminant dose (DD) of 0.5 µM [23]. The technique is described in more detail below.
The in vitro anthelmintic activity of a total of 70 BZDs was initially tested on F. hepatica eggs recovered from gallbladders of cattle naturally infected with ABZ-susceptible isolates. The first screening was performed using a fixed concentration of 50 µM. […] Therefore, only BZDs with ovicidal activities over 80% progressed to the next assays at 10 µM. […] At this last concentration, the ovicidal effect of ABZ, ABZSO, and OXF was also evaluated.
(§1) The in vitro EHT described in the current study was based on previous studies. Briefly, 100–120 eggs were incubated in 990 µL of water and 10 μL of each working solution at 25 °C in the dark for a period of 12 h. After incubation, eggs were gently washed with tap water three times to facilitate compound removal and kept in darkness at 25 °C for 14 days. After this period, eggs were exposed to light for 2 h to stimulate the hatching of eggs. Then, hatched and unhatched eggs were evaluated and counted using an optical microscope. The term “hatched eggs” includes both hatched and embryonated eggs. Negative control eggs were incubated with 10 μL of DMSO in 990 μL of water, reaching a maximum DMSO concentration of 1% (v/v), while ABZ at 0.5 µM was used as positive control. Each compound at a specific concentration was tested in triplicate in the same EHT and repeated at least two different days.
With the aim to characterize the susceptibility of isolates from naturally infected cattle, the drug used in the EHT was ABZ, tested at a discriminant dose of 0.5 μM. Drug susceptibility is assumed when the ovicidal activity is over 70%, resistance when is lower than 40%, and a suspicion of resistance when activity is between these values at 0.5 μM.
(§2) The efficacy of each compound and drug was calculated as its ovicidal activity following the formula below: Ovicidal activity%=100×%eggs hatched in negative control-%egg hatched after drug incubation/%egg hatched in control.

[2] = test system: Fasciola hepatica eggs (ABZ-resistant isolate); assay: Egg hatch test (EHT), ABZ-resistant isolate; type: cell-based; settings: ABZ at discriminant dose (DD) 0.5 µM
Description: (§3) F. hepatica eggs were recovered after washing the gallbladder of three naturally infected sheep belonging to a flock suspected to be resistant to ABZ. From these eggs, metacercariae were produced at the Centro de Investigaciones de Mabegondo (AGACAL, Xunta de Galicia, Spain) following a previous protocol. These metacercariae were used to infect eight sheep with a dose of 200 metacercariae. The infection was confirmed individually 3 months after the infection by coprological analysis using a sedimentation technique. At that point, sheep were randomly located in two groups of four animals: one treated with a therapeutic dose of ABZ (7.5 mg/kg) and the other one only with water, as control group. To assess the efficacy of ABZ in this isolate, all sheep were humanely euthanized by an intravenous administration of a lethal dose of sodium pentobarbital (Dolethal®, Vetoquinol, Spain) 2 weeks later for fluke recovery and counting. Afterwards, the in vivo efficacy of ABZ was calculated as the percentage of adult worm reduction compared with the untreated control. Additionally, the number of eggs per gram of feces (EPG) was estimated on the treatment day (mentioned as day 0) and 14 days later to determine drug efficacy by means of the fecal egg count reduction test (FECRT).
During the necropsy, gallbladders from sheep belonging to the untreated group were taken to collect the eggs and carry out the in vitro EHT, while flukes collected from livers were used to conduct the adult viability test (AVT).
Those BZDs with an activity higher than 80% at a concentration of 10 µM were also screened on eggs and adults from the ABZ resistant isolate.
as §1, §2

[3] = test system: Fasciola hepatica (resistant isolate); assay: In vivo efficacy of ABZ in sheep infected with the resistant isolate (worm count, FECRT); settings: ABZ 7.5 mg/kg
Description: as §3, with “To assess the efficacy of ABZ in this isolate, all sheep were humanely euthanized by an intravenous administration of a lethal dose of sodium pentobarbital (Dolethal®, Vetoquinol, Spain) 2 weeks later for fluke recovery and counting.” left out, “Additionally, the number of eggs per gram of feces (EPG) was estimated on the treatment day (mentioned as day 0) and 14 days later to determine drug efficacy by means of the fecal egg count reduction test (FECRT).” left out
The percentage of in vivo efficacy of ABZ and the FECRT were calculated using the following formulas, respectively: %of Worm Reduction=100×Mean of adult worms in control group-Mean of adult worms in treated group/Mean of adult worms in control group. %FECRT=100×Arithmetic mean EPG day0-Arithmetic mean EPG day 14/Arithmetic mean EPG day0.

Fasciola hepatica eggs = test system: Fasciola hepatica eggs; parameters: method as in PMID 19560276; settings: other studies, cited from earlier work
[4] = test system: murine intestinal organoids; assay: Intestinal tolerability assay on murine intestinal organoids; type: cell-based, mouse
Description: (§4) The murine intestinal organoid cultures were prepared following Stemcell Technologies™ protocols (https://www.stemcell.com/intestinal-epithelial-organoid-culture-with-intesticult-organoid-growth-medium-mouse-lp.html#protocols). Small intestine sections from C57BL/6 mice were excised, washed with ice-cold PBS, minced, and 2 mm segments were washed extensively. The segments were treated with Gentle Cell Dissociation Reagent (Stemcell Technologies™, Canada), resuspended in ice-cold PBS with 0.1% BSA and filtered. This process was repeated four times, resulting in four fractions. Cells from each fraction were centrifuged, washed, and resuspended in ice-cold DMEM/F12 supplemented with glutamine and HEPES 15 mM. Each fraction was mixed with Geltrex GFR LDEV-free (Gibco, Thermo Fisher Scientific, USA) and IntestiCult™ Organoid Grow Medium Mouse (Stemcell Technologies™, Canada), added to a 24-well plate and incubated at 37 °C for 10 min for matrix polymerization. The organoids were cultured in IntestiCult™ Organoid Grow Medium Mouse, with medium changes every 2 days and splitting after 7 days.
(§5) For intestinal tolerability assays, selected hit compounds were tested in mouse intestinal organoids at 25 and 50 µM final concentrations. The protocol, based on a previous work, involved the addition of Gentle Cell Dissociation Reagent (Stemcell Technologies™, Canada) on matrix domes, the disruption of the matrix, and the incubation the suspension. After centrifugation, cells were resuspended in DMEM/F12 supplemented with glutamine and HEPES 15 mM and centrifugated again. The pellet was resuspended in a mix of Geltrex GFR LDEV-free and IntestiCult™ Organoid Grow Medium Mouse. The mix was plated in 384-well plates, and after 4 days, mature organoids were exposed to the compounds. The positive control was hydrogen peroxide (0.15% v/v), and the negative control was DMSO (0.2%). Viability after 72 h was assessed using the alamarBlue assay.

HepG2 cells = assay: Cytotoxicity assay, alamarBlue; type: cell-based, human
Description: (§6) The effect of the BZDs on cell viability was assessed on a human hepatocarcinoma HepG2 (ATCC® HB-8065™, USA) cell line. Only compounds screened at a concentration of 10 µM were evaluated. The detailed protocol is described in a previous study carried out by our research group. Briefly, 10,000 cells were seeded on 96-well plates and incubated with different concentrations of the compounds ranging from 1 to 100 µM at 37 °C and 5% CO2. After 72 h of exposure, viability of the cells was assessed using the alamarBlue (Fisher Scientific®, Spain) staining method according to the manufacturer’s recommendations.
(§7) The data are represented as mean ± standard error of media (SEM).

[5] = test system: Teladorsagia circumcincta eggs; settings: cited from earlier work
[6] = test system: Heligmosomoides polygyrus adults; parameters: method as in PMID 35804427; settings: 10 µM; cited from earlier work
Trichuris muris adults = test system: Trichuris muris adults; parameters: method as in PMID 35804427; settings: 10 µM; cited from earlier work
Haemonchus contortus = settings: sheep infected with Haemonchus contortus, 120 mg/kg; cited from earlier work
[7] = Cytotoxicity assay, alamarBlue; type: cell-based, human; settings: human, HepG2 cells; 72 h exposure, alamarBlue; read-out: CC50 Hep-G2
Description: as §6, §7

[8] = Intestinal tolerability assay on murine intestinal organoids; type: cell-based, mouse; settings: C57BL/6, mouse, murine small-intestinal organoids, 72 h
Description: as §4, §5

[9] = type II BZDs, read-out: IC50 against T. circumcincta eggs

CCCSc1ccc2nc(NC(=O)OC)[nH]c2c1 [ABZ, albendazole, reference compound]
% Ovicidal activity ([1]; ABZ at discriminant dose (DD) 0.5 µM): 99.1% and 98% | % Ovicidal activity ([1]; ABZ at discriminant dose (DD) 0.5 µM, listed as ABZ (DD)): 99.01 ± 00.37% and 98.55 ± 00.41% | % Ovicidal activity resistant isolate [2]: 36.5% | % Ovicidal activity resistant isolate ([2]; listed as ABZ (DD)): 36.46 ± 02.36% | reduction in the number of eggs in feces (FECRT) ([3]; day 0 vs day 14): 0% | survival rate of the adult flukes ([3]; necropsy 2 weeks after treatment): 96.7% | Lowest concentration able to reduce egg hatching (Fasciola hepatica eggs; in vitro): 0.05 µM

COc1ccc(-c2nc3cc(C)ccc3[nH]2)cc1 [BZD04]
% Ovicidal activity ([1]; 10 µM, mean ± SEM): 64.27 ± 10.16% | % Ovicidal activity ([1]; 50 µM, mean ± SEM): 99.57 ± 0.43% | % Ovicidal activity ([1]; 50 µM, mean ± SEM, listed as BZD-04): higher than 80% | % Viability in organoids ([4]; 50 µM): 10.50%

COc1ccc(-c2nc3cc(Cl)ccc3[nH]2)cc1 [BZD08]
% Ovicidal activity ([1]; 10 µM, mean ± SEM): 55.33 ± 05.81% | % Ovicidal activity ([1]; 10 µM, mean ± SEM, listed as BZD-08): around 50% | % Ovicidal activity ([1]; 50 µM, mean ± SEM): 98.08 ± 1.06% | % Ovicidal activity ([1]; 50 µM, mean ± SEM, listed as BZD-08): higher than 80% | CC50 (HepG2 cells): > 50 µM | % Viability in organoids ([4]; 25 µM): 69.30% | % Viability in organoids ([4]; 50 µM): 47.30%

Clc1ccc(-c2nc3cc(Cl)ccc3[nH]2)cc1 [BZD09]
% Ovicidal activity ([1]; 50 µM, mean ± SEM): 04.96 ± 1.22% | IC50 ([5]; read-out: 50% inhibitory concentration (IC50) in eggs by the EHT, T. circumcincta eggs, type I BZDs): 6 µM | Inhibition of motility of Heligmosomoides polygyrus adults [6]: effectively inhibited the motility

O=[N+]([O-])c1ccc2[nH]c(-c3ccc(Cl)cc3)nc2c1 [BZD15]
% Ovicidal activity ([1]; 50 µM, mean ± SEM): 24.32 ± 10.58% | Inhibition of Trichuris muris adult motility (Trichuris muris adults): inhibited Trichuris muris adult motility

Cc1ccc2[nH]c(NCc3ccccc3)nc2c1 [BZD27]
% Ovicidal activity ([1]; 10 µM, mean ± SEM): 44.65 ± 07.46% | % Ovicidal activity ([1]; 10 µM, mean ± SEM, listed as BZD-27): around 50% | % Ovicidal activity ([1]; 50 µM, mean ± SEM): 95.92 ± 1.99% | % Ovicidal activity ([1]; 50 µM, mean ± SEM, listed as BZD-27): higher than 80% | % Viability in organoids ([4]; 25 µM, 72 h): 54.10% | % Viability in organoids ([4]; 50 µM, 72 h): 49.70%

Cc1ccc2[nH]c(NCc3ccco3)nc2c1 [BZD30]
% Ovicidal activity ([1]; 10 µM, mean ± SEM): 52.41 ± 01.02% | % Ovicidal activity ([1]; 10 µM, mean ± SEM, listed as BZD-30): around 50% | % Ovicidal activity ([1]; 50 µM, mean ± SEM): 100.00 ± 0.00% | % Ovicidal activity ([1]; 50 µM, mean ± SEM, listed as BZD-30): higher than 80% | CC50 (HepG2 cells; 72 h exposure, alamarBlue, read-out: CC50 Hep-G2): > 50 µM | % Viability in organoids ([4]; 25 µM, 72 h): 62.50% | % Viability in organoids ([4]; 50 µM, 72 h): 54.00%

Clc1ccc2[nH]c(NCc3ccccc3)nc2c1 [BZD32]
% Ovicidal activity ([1]; 10 µM, mean ± SEM): 09.11 ± 03.40% | % Ovicidal activity ([1]; 50 µM, mean ± SEM): 92.62 ± 1.96% | % Ovicidal activity ([1]; 50 µM, mean ± SEM, listed as BZD-32): higher than 80% | % Viability in organoids ([4]; 25 µM): 48.10% | % Viability in organoids ([4]; 50 µM): 52.10%

COc1ccc2[nH]c(NCc3ccc(N4CCCC4)cc3)nc2c1 [BZD38]
% Ovicidal activity ([1]; 10 µM, mean ± SEM): 03.23 ± 00.84% | % Ovicidal activity ([1]; 50 µM, mean ± SEM): higher than 80% | CC50 (HepG2 cells): > 100 µM | % Viability in organoids ([4]; 25 µM): 81.10% | % Viability in organoids ([4]; 50 µM): 38.00%

Cc1ccc2[nH]c(NC(=O)c3ccccn3)nc2c1 [BZD55]
% Ovicidal activity ([1]; 10 µM, mean ± SEM): 07.11 ± 03.01% | % Ovicidal activity ([1]; 50 µM, mean ± SEM): 89.71 ± 3.87% | % Ovicidal activity ([1]; 50 µM, mean ± SEM, listed as BZD-55): higher than 80% | CC50 (HepG2 cells): > 100 µM | % Viability in organoids ([4]; 25 µM): 98.60% | IC50 [5, 9]: ~1 µM

O=C(Nc1nc2cc(Cl)ccc2[nH]1)c1ccccn1 [BZD58]
% Ovicidal activity ([1]; 10 µM, mean ± SEM): around 50% | % Ovicidal activity ([1]; 50 µM, mean ± SEM): higher than 80% | CC50 (HepG2 cells): > 5 µM | % Viability in organoids ([4]; 25 µM): 100% | in vivo efficacy (Haemonchus contortus): 95%

COc1ccc2[nH]c(NC(=O)c3ccccn3)nc2c1 [BZD61]
% Ovicidal activity ([1]; 50 µM, mean ± SEM): 93.17 ± 3.31% | % Ovicidal activity ([1]; 50 µM, mean ± SEM, listed as BZD-61): higher than 80% | IC50 [5, 9]: < 1 µM

Nc1cc(C(Cl)=C(Cl)Cl)c(S(N)(=O)=O)cc1S(N)(=O)=O [CLR, clorsulon]
Effect on in vitro egg hatching (Fasciola hepatica eggs): did not affect in vitro egg hatching

CSc1nc2cc(Cl)c(Oc3cccc(Cl)c3Cl)cc2[nH]1 [TCBZ, triclabendazole, reference compound]
killing at 5 µM ([1]; Fasciola hepatica, 5 µM, mean ± SEM, read-out: % Ovicidal activity susceptible isolate): ≤ 2% | CC50 at 72 h [7]: > 50 µM | viability at 72 h, 25 µM ([8]; 25 µM): ~82% | viability at 72 h, 50 µM ([8]; 50 µM): ~1.5% | Effect on in vitro egg hatching (Fasciola hepatica eggs): did not affect in vitro egg hatching
